This note sets out measurements from patent US11609238B2, “Method for detecting a radical compound derived from a lipid and a compound derived from the radical compound” (FUSO PHARMACEUTICAL INDUSTRIES, LTD., priority 2017, dated 2023).

Data set [1] can be described thus: Reactivity of NBD-nitroxide with lipid radicals by fluorometry. Conditions: for fluorescence intensity on reaction with lipid radical: lipid radical produced using lipoxygenase (LOX) for LA, ALA or AA, FIG. 3. Here is the method: (§1) In order to investigate reaction selectivities of the above three types of NBD-nitroxide (NBD-Me, NBD-Et and NBD-Pen), reactivities with various ROS and lipid radical were evaluated by fluorometry. […] In addition, in the reaction with these compounds, no significant difference in fluorescence intensity was observed between these nitroxides, and there was no difference between the 2nd and 6th position substituents.

Data set [2] can be described thus: Reactivity of NBD-nitroxide with reactive oxygen species by fluorometry. Conditions: hydrogen peroxide, hypochlorous acid. Here is the method:
as §1

The test system of data set [3] is hepatocellular carcinoma. Kind of data set: Hepatocellular carcinogenesis three months after DEN administration, number of tumor foci. Conditions: rats three months after DEN 100 mg/kg i.p.; 500 μM solution at 4 ml/kg 1 h after DEN; FIG. 6. The class given is in vivo, rats (F344). Here is the method:
(§2) Six week-old male rats (F344) were divided into 4 groups, and as a control, rats in Group 1 were administered with saline (PBS) by intraperitoneal injection. Rats in Groups 2-4 were administered with DEN at 100 mg/kg by intraperitoneal injection.
(§3) One hour after DEN administration, physiological saline was administered to rats in Group 2 by intraperitoneal injection, rats in Group 3 were administered with a 500 μM OH-Pen solution at 4 ml/kg, and rats in Group 4 were administered with a 500 μM OH-Pen-NOMe solution at 4 ml/kg.
Three months after DEN administration, rats in the respective groups were subjected to mixed anesthesia of 3 species, and they were sacrificed and livers were taken out promptly. Photographs of the livers taken from the rats of the respective groups are shown in FIG. 6, and the result of counting the number of tumor foci is shown in FIG. 6b.

For data set [4], the system named is MDA, ALT (GPT), IL-6 in liver extracts of DEN-administered rats. Kind of data set: Liver lipid peroxidation, hepatic injury and inflammatory markers after DEN administration. The class given is in vivo, rats (F344). Conditions: rat liver extract 24 h after DEN 100 mg/kg i.p.; 500 μM solution at 4 ml/kg 1 h after DEN; vs DEN group; FIG. 5. How it is done:
as §2, §3
Twenty-four hours after DEN administration, livers were excised from rats in the respective groups and lipid extraction was carried out. For extracts, amounts of malondialdehyde; MDA as a peroxidized lipid marker, alanine transaminase (glutamate pyruvate transferase; ALT (GPT)) as a hepatic injury marker, and interleukin-6; IL-6 as an inflammatory marker were measured.

Data set [5] is described as follows: Scavenging of lipid radicals in hepatocellular carcinoma model mouse, LC/FL/MS of liver lipid extract. The data set is classed as in vivo, mice (C57BL/6J). Here is the method: It is appropriately selected according to the present invention, but not limited to, HPLC analysis is performed in this Example by injecting 10 μL of a sample solution into an InertSusteain® C18 analytical column (filled with ES silica having a particle size of 3 μm, 2.0×150 mm) manufactured by Mitsubishi Chemical Corporation, which is eluted with a mobile phase (A: 5.0 mM ammonium acetate in H2O, B:ACN:H2O (95:5)) at 40° C. at a rate of 0.4 ml/min. The time program of mobile phase elution was set to B %: 0 to 22 min; 60%, 22 to 60 min; 80%, 60 to 70 min; 100%.
For each fraction eluted, fluorescence observation from NBD-Pen was performed at excitation wavelength (470 nm) and emission wavelength (530 nm) with a fluorescence detector (RF-20A xs manufactured by Shimadzu Corporation).
Next, each fraction thus obtained was introduced into an ion detector (Q Exactive™ Hibrid Quadrupole-Orbitrap™ MS manufactured by Thermo Fisher Scientific Co., Ltd.) by electrospray ionization (ESI) and subjected to mass spectrometry.
Male mice (C57BL/6J) at 8 weeks of age were divided into two groups. As a control, physiological saline (PBS) was administered to mice in Group 1 by intraperitoneal injection. DEN at 100 mg/kg was administered to mice in Group 2 by intraperitoneal injection.
Four hours after DEN administration, a 500 μM NBD-Pen solution was administered at 4 ml/kg to mice in Groups 1 and 2 by intraperitoneal injection.
Fifteen minutes after administration of NBD-Pen, livers were excised from the mice in the respective groups and lipid extraction was performed. LC/FL/MS analysis was performed on extracts under the same conditions as in Example 1. The structure of the radical adduct was analyzed by comparing the fluorescence peak observed at the LC/FL site with the precise mass analysis result at that column retention time. The results are described in Table 2 and FIG. 11.

Data set [6] deals with human umbilical vein endothelial cell (HUVEC). As to the kind of experiment: Cytotoxicity of NBD-nitroxide, viable cell count. The class given is cell-based. As to conditions: viable cells after incubation for 24 hours. Here is the method: Cytotoxicity of NBD-nitroxide was evaluated using human umbilical vein endothelial cell (HUVEC). When each concentration of the compound was added to HUVEC and the number of viable cells after incubation for 24 hours was counted, cytotoxicity was not observed up to 10 μM in any NBD-nitroxide.

Where [7] appears, read: superoxide anion radical, hydroxy radical or nitric oxide, FIG. 3.
[8] abbreviates: Gr. 1, no DEN (PBS), mouse liver 15 min after 500 μM NBD-Pen 4 ml/kg i.p.
Where [9] appears, read: Gr. 2, DEN 100 mg/kg i.p., NBD-Pen 500 μM 4 ml/kg i.p. 4 h after DEN, liver 15 min later.

Take `CCC1(CC)CC(Nc2ccc([N+](=O)[O-])c3nonc23)CC(CC)(CC)N1[O]` [NBD-Et]: the “fluorescence intensity on reaction with lipid radical” value in data set [1] is given as “significantly elevated”. Also, in data set [2] (setting [7]), the “fluorescence on reaction with reactive oxygen species” value (from here on “fluorescence on reaction”) is “fluorescence did not increase much”.

Regarding `CCCCCC1(C)CC(O)CC(C)(C)N1[O]` (centres unmarked) [OH-Pen, 4-hydroxy-2,2,6-trimethyl-6-pentylpiperidine-1-oxyl], the “hepatocellular carcinogenesis (number of tumor foci)” value in data set [3] is “suppressed hepatocellular carcinogenesis”. In data set [4], the “alanine transaminase ALT (GPT), hepatic injury marker” value was “significantly decreased”; the “interleukin-6 (IL-6), inflammatory marker” value was “significantly decreased”; the “malondialdehyde (MDA), peroxidized lipid marker” value was “significantly decreased”.

For the compound `CC1(C)CC(Nc2ccc([N+](=O)[O-])c3nonc23)CC(C)(C)N1[O]` [NBD-Me], the “fluorescence intensity on reaction with lipid radical” value in data set [1] is “significantly elevated”. In addition, in data set [2] (setting [7]), the “fluorescence on reaction” value is on record as “fluorescence did not increase much”.

Regarding `CCCCCC1(C)CC(O)CC(C)(C)N1OC` (centres unmarked) [OH-Pen-NOMe, 4-hydroxy-1-methoxy-2,2,6-trimethyl-6-pentylpiperidine-1-oxyl], in data set [3], the “hepatocellular carcinogenesis (number of tumor foci)” value is given as “not suppressed at all”. Also, in data set [4], the “alanine transaminase ALT (GPT), hepatic injury marker” value is “almost no drop”; the “interleukin-6 (IL-6), inflammatory marker” value was “almost no drop”; the “malondialdehyde (MDA), peroxidized lipid marker” value is on record as “almost no drop”.

“2,2,6-trimethyl-4-(4-nitrobenzo[1,2,5]oxadiazol-7-ylamino)-6-pentylpiperadine-1-oxyl [NBD-Pen]”: in data set [5] (setting [8]), the “Fluorescent intensity of NBD-Pen-R (a.u.) R” value is 29.72 a.u, the “Fluorescent intensity of NBD-Pen-R (a.u.) R C2H5” value is on record as 72.95 a.u, the “Fluorescent intensity of NBD-Pen-R (a.u.) R C3H7” value turned out to be 143.69 a.u and the “Fluorescent intensity of NBD-Pen-R (a.u.) R C5H11” value is given as 393.38 a.u. Moreover, in data set [5] (setting [9]), the “Fluorescent intensity of NBD-Pen-R (a.u.) R” value is 353.94 a.u, the “Fluorescent intensity of NBD-Pen-R (a.u.) R C2H5” value is given as 704.15 a.u, the “Fluorescent intensity of NBD-Pen-R (a.u.) R C3H7” value was found to be 1604.07 a.u and the “Fluorescent intensity of NBD-Pen-R (a.u.) R C5H11” value worked out at 3511.72 a.u. Moreover, in data set [1], the “reactivity with the lipid radicals and thermal stability of nitroxide-lipid complex, comparison among Compounds A to C” value is on record as “predominant”; the “fluorescence intensity on reaction with lipid radical” value is given as “significantly elevated”. Moreover, the “fluorescence intensity on reaction with lipid radicals” value in data set [1] (LA, ALA, AA activated with LOX, AAPH or MeO-AMVN, FIG. 4) is recorded as “remarkably increased”. The “fluorescence on reaction” value in data set [2] (superoxide anion radical or hydroxy radical, FIG. 4) is “fluorescence did not increase much”. Further, in data set [2] (setting [7]), the “fluorescence on reaction” value is reported as “fluorescence did not increase much”. The “concentration up to which cytotoxicity was not observed” value in data set [6] was above 10 µM.
